Consider 5 molecules from patent US20040029254A1, “Method of screening anti-bacterial agents for effectiveness in treating persistant intracellular infections” (University of Washington, priority 2002, published 2004).

In brackets after ≈: the same amount, converted by molar mass.

Common to all, as to assay type: cell-based
The subject of assay [1] is clinical isolates of C. trachomatis. Nature of the assay: microbe, parasite or virus in culture.
Assay [2] has as its system C. trachomatis B,D,E,F,G,H,I,Ia,J,K (human genital serovars). Nature of the assay: Anti-bacterial susceptibilities of reference strains.
Assay [3] deals with C. trachomatis L2 (LGV serovar). Described as above.
Assay [4] deals with C. trachomatis MoPn (mouse pneumonitis strain). The assay is described as above.
Assay [5] deals with C. suis R-19 (porcine strain). Conditions: McCoy cells; for MCC (microtiter): one freeze-thaw passage in microtiter plates; for MCC1 (shell vial): one passage in shell vials; for MIC (microtiter): tetracycline-resistant strain; for MCC3 (shell vial): three passages in shell vials.

For the molecule `CO[C@H]1/C=C/O[C@@]2(C)Oc3c(C)c(O)c4c(=O)c(c5oc6cc(N7CCN(CC(C)C)CC7)cc(O)c6nc-5c4c3C2=O)NC(=O)/C(C)=C\C=C\[C@H](C)[C@H](O)[C@@H](C)[C@@H](O)[C@@H](C)[C@H](OC(C)=O)[C@@H]1C` [Rifalazil, rifalazil], in assay [1], the MCC1 was in the range of 0.001 to 0.002 µg/mL and the MCC3 fell in the range of 0.004 to 0.008 µg/mL.

`CC1COc2c(N3CCN(C)CC3)c(F)cc3c(=O)c(C(=O)O)cn1c23` (stereo not drawn) [Ofloxacin, ofloxacin]: in assay [2], the “MCC1 (shell vial)” value was greater than 8 µg/mL, the “MCC3 (shell vial)” value was greater than 128 µg/mL and the “MCC (microtiter)” value was found to be 1.0 µg/mL. In assay [3], the “MCC1 (shell vial)” value was greater than 8 µg/mL, the “MCC3 (shell vial)” value was greater than 128 µg/mL and the “MCC (microtiter)” value was 1.0 µg/mL. In addition, in assay [4], the “MCC1 (shell vial)” value was greater than 8 µg/mL, the “MCC3 (shell vial)” value is greater than 128 µg/mL and the “MCC (microtiter)” value stood at 1.0 µg/mL. In assay [5], the “MCC (microtiter)” value came to 1.0 µg/mL, the “MCC1 (shell vial)” value was greater than 8 µg/mL, the “MIC (microtiter)” value was 0.5 µg/mL (≈ 1.38 µM) and the “MCC3 (shell vial)” value was greater than 128 µg/mL. For the same molecule, in assay [1], the MCC1 lay within 8 to 16 µg/mL and the MCC3 was greater than 128 µg/mL.

As for `CCCN1CCN(c2cc(O)c3nc4c5c6c7c(C)c(O)c5c(=O)c(c-4oc3c2)NC(=O)/C(C)=C\C=C\[C@H](C)[C@H](O)[C@@H](C)[C@@H](O)[C@@H](C)[C@H](OC(C)=O)[C@H](C)[C@@H](OC)/C=C/O[C@@](C)(O7)C6=O)CC1` [KRM-1657], in assay [1], the MCC1 lay within 0.0005 to 0.001 µg/mL and the MCC3 fell in the range of 0.001 to 0.002 µg/mL.

Turning to `C[C@H]1c2cccc(O)c2C(=O)C2=C(O)[C@]3(O)C(=O)C(C(N)=O)=C(O)[C@@H](N(C)C)[C@@H]3[C@@H](O)[C@@H]21` [Doxycycline, doxycycline], in assay [2], the “MCC1 (shell vial)” value is greater than 8 µg/mL, the “MCC3 (shell vial)” value lay in the range of 16 to 32 µg/mL and the “MCC (microtiter)” value was 0.125 µg/mL. In assay [3], the “MCC1 (shell vial)” value is greater than 8 µg/mL, the “MCC3 (shell vial)” value was found to be 32 µg/mL and the “MCC (microtiter)” value was 0.125 µg/mL. For the same molecule, in assay [4], the “MCC1 (shell vial)” value is greater than 8 µg/mL, the “MCC3 (shell vial)” value was determined as 64 µg/mL and the “MCC (microtiter)” value is 0.5 µg/mL. In assay [5], the “MCC (microtiter)” value is 2.0 µg/mL, the “MCC1 (shell vial)” value was greater than 8 µg/mL, the “MIC (microtiter)” value is 1.0 µg/mL (≈ 2.25 µM) and the “MCC3 (shell vial)” value was greater than 128 µg/mL. In assay [1], this molecule gave an MCC1 of 4 to 8 µg/mL and an MCC3 of 32 to 64 µg/mL.

Take `CC[C@H]1OC(=O)[C@H](C)[C@@H](O[C@H]2C[C@@](C)(OC)[C@@H](O)[C@H](C)O2)[C@H](C)[C@@H](O[C@@H]2O[C@H](C)C[C@H](N(C)C)[C@H]2O)[C@](C)(O)C[C@@H](C)CN(C)[C@H](C)[C@@H](O)[C@]1(C)O` [Azithromycin, azithromycin]: in assay [2], the “MCC1 (shell vial)” value was greater than 8 µg/mL, the “MCC3 (shell vial)” value worked out at 64 µg/mL and the “MCC (microtiter)” value stood at 0.25 µg/mL. For the same molecule, in assay [3], the “MCC1 (shell vial)” value is greater than 8 µg/mL, the “MCC3 (shell vial)” value amounted to 64 µg/mL and the “MCC (microtiter)” value is 0.25 µg/mL. In assay [4], the “MCC1 (shell vial)” value is greater than 8 µg/mL, the “MCC3 (shell vial)” value was determined as 128 µg/mL and the “MCC (microtiter)” value came out at 0.5 µg/mL. In assay [5], the “MCC (microtiter)” value was determined as 0.25 µg/mL, the “MCC1 (shell vial)” value was greater than 8 µg/mL and the “MCC3 (shell vial)” value is greater than 128 µg/mL. Besides, in assay [1], the MCC1 is 4 to 8 µg/mL and the MCC3 was 32 to 64 µg/mL.
